# In ChEMBL document CHEMBL1127914, “Pseudopeptide inhibitors of aminopeptidases containing the [CH(CN)NH] surrogate as a transition-state MIMIC” (Bioorg Med Chem Lett, 1994):
# Residues, ends and D or L forms follow the SMILES beside them.
# Assays:
# Aminopeptidase B [1] = biological target: T1, Aminopeptidase B (Mus musculus, UniProt Q8VCT3); experiment: Inhibition of Aminopeptidase B in murine L-cells by Aoyagi method.
# T1 sequence (Q8VCT3 whole entry): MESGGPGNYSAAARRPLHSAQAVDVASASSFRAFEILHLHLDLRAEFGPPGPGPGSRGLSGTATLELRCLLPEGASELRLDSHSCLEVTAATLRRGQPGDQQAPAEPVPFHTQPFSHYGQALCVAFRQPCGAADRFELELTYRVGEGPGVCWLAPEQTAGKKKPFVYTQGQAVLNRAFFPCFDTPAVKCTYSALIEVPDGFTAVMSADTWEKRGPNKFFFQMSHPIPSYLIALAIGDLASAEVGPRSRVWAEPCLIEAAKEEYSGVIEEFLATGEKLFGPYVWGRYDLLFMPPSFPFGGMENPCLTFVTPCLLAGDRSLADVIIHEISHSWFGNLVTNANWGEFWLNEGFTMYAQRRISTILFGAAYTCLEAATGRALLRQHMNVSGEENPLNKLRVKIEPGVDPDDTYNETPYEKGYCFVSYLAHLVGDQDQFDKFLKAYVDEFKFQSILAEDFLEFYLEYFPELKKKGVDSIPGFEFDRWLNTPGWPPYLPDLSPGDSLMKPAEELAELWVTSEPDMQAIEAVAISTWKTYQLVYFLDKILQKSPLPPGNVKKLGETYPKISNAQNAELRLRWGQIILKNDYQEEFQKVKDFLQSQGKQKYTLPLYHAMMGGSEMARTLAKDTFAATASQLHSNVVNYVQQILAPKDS
# Aminopeptidase N [2] = biological target: T2, Aminopeptidase N (Homo sapiens, UniProt P15144); experiment: Inhibition of Aminopeptidase M.
# T2 sequence (P15144 whole entry): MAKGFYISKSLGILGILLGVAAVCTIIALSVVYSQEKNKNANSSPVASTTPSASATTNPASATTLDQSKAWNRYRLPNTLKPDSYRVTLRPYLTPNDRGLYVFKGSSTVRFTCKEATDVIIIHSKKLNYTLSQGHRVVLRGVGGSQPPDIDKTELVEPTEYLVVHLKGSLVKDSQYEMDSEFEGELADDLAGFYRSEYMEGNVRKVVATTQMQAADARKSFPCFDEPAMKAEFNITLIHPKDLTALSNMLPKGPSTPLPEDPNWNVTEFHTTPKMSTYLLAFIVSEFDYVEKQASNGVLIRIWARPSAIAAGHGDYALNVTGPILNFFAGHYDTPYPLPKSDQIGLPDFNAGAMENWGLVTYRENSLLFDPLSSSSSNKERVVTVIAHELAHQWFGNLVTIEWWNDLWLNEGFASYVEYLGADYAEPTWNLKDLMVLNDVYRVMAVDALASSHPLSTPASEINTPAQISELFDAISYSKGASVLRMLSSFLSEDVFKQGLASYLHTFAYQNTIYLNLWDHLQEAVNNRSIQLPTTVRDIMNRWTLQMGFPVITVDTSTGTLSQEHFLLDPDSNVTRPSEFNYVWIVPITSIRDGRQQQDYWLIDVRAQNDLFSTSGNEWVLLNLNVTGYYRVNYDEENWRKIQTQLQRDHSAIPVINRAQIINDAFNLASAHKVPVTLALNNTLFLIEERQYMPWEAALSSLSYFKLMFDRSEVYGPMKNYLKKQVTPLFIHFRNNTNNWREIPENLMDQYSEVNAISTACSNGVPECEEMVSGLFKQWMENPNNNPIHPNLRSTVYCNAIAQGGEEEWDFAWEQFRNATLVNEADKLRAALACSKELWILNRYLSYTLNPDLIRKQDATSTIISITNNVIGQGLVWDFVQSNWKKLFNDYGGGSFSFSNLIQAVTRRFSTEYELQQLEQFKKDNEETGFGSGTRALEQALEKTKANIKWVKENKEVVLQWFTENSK
# Aminopeptidase B [3] = biological target: T1, Aminopeptidase B; experiment: Concentration required for inhibitory potency against Aminopeptidase B in murine L-cells by aoyagi method using L-lysine-2-naphthylamide hydrochloride as substrate (0.5mM, Km=0.9*10e-4 M)
# Aminopeptidase N [4] = biological target: T2, Aminopeptidase N; experiment: Concentration required for inhibitory potency on Aminopeptidase M using L-leucine-2-naphthylamide hydrochloride as substrate(0.5 mM, Km=0.6*10e-4 M)
Structure (SMILES),IC50 (Aminopeptidase B [1]) [µM],IC50 (Aminopeptidase N [2]) [µM],IC50 (Aminopeptidase B [3]) [µM],IC50 (Aminopeptidase N [4]) [µM]
COC(=O)[C@H](Cc1ccccc1)N[C@@H](C#N)[C@@H](N)Cc1ccccc1,221,–,–,–
COC(=O)[C@@H]1CCCN1C(=O)[C@H](CC(C)C)NC(=O)[C@@H](N)Cc1ccccc1 (H-Phe-Leu-Pro-OMe),824,793,–,–
COC(=O)[C@H](Cc1ccccc1)N[C@H](C#N)[C@@H](N)Cc1ccccc1,293,–,–,–
COC(=O)[C@H](CC(C)C)NC(C#N)[C@@H](N)Cc1ccccc1 (some centres not stated),50,–,–,–
COC(=O)[C@H](CCCCN)NC(C#N)[C@@H](N)Cc1ccccc1 (some centres not stated),44,–,–,–
COC(=O)[C@H](CCCCN)NC(C#N)[C@H](Cc1ccccc1)NC(=O)OC(C)(C)C (mixture of isomers),1000,1000,–,–
COC(=O)[C@@H]1CCCN1C(=O)[C@H](CC(C)C)N[C@@H](C#N)[C@@H](N)Cc1ccccc1,28,–,–,–
"COC(=O)C1CCCN1C(=O)[C@H](CC(C)C)NC(C#N)[C@@H](N)Cc1ccccc1 (single isomer, unassigned)",14,–,–,–
CC(C)C[C@H](NC(=O)[C@@H](N)Cc1ccccc1)C(=O)O (H-Phe-Leu-OH),1000,1000,–,–
COC(=O)[C@@H](NC(C#N)[C@@H](N)Cc1ccccc1)C(C)C (some centres not stated),36,–,–,–
CC(C)C[C@H](NC(=O)[C@@H](O)[C@H](N)Cc1ccccc1)C(=O)O [UBENIMEX],6,–,–,–
"COC(=O)[C@H](CC(C)C)NC(C(N)=O)[C@@H](N)Cc1ccccc1 (single isomer, unassigned)",1000,1000,–,–
COC(=O)[C@@H](NC(C#N)[C@H](Cc1ccccc1)NC(=O)OC(C)(C)C)C(C)C (some centres not stated),1000,1000,–,–
"COC(=O)C1CCCN1C(=O)[C@H](CC(C)C)NC(C(N)=O)[C@@H](N)Cc1ccccc1 (single isomer, unassigned) [listing 1 of 2 here]",–,–,1000,783
"COC(=O)[C@H](Cc1ccccc1)NC(C#N)[C@H](Cc1ccccc1)NC(=O)OC(C)(C)C (single isomer, unassigned; form 2)",1000,1000,–,–
"COC(=O)C1CCCN1C(=O)[C@H](CC(C)C)NC(C#N)[C@H](Cc1ccccc1)NC(=O)OC(C)(C)C (single isomer, unassigned; form 1)",1000,1000,–,–
"COC(=O)C1CCCN1C(=O)[C@H](CC(C)C)NC(C#N)[C@H](Cc1ccccc1)NC(=O)OC(C)(C)C (single isomer, unassigned; form 2)",1000,1000,–,–
COC(=O)[C@H](CC(C)C)NC(C#N)[C@H](Cc1ccccc1)NC(=O)OC(C)(C)C (mixture of isomers),1000,1000,–,–
"COC(=O)C1CCCN1C(=O)[C@H](CC(C)C)NC(C(N)=O)[C@@H](N)Cc1ccccc1 (single isomer, unassigned) [listing 2 of 2 here]",1000,1000,–,–
"COC(=O)[C@H](Cc1ccccc1)NC(C#N)[C@H](Cc1ccccc1)NC(=O)OC(C)(C)C (single isomer, unassigned; form 1)",1000,1000,–,–
